Measurements: US20260200905A1, “MICROBIOCIDAL TETRAHYDROISOQUINOLINE DERIVATIVES” (SYNGENTA CROP PROTECTION AG, priority 2022, published 2026)

Columns and labels:
Assay type in all cases: cell-based
[1] = tested on: Mycosphaerella arachidis (Cercospora arachidicola); assay: Mycosphaerella arachidis (Cercospora arachidicola) / liquid culture (early leaf spot); details: growth inhibition photometrically 4 to 5 days after application, read-out: control of Mycosphaerella arachidis
Description: (§1) Example B6: Mycosphaerella arachidis (Cercospora arachidicola)/Liquid Culture (Early Leaf Spot) Conidia of the fungus from cryogenic storage are directly mixed into nutrient broth (PDB potato dextrose broth). After placing a (DMSO) solution of test compound into a microtiter plate (96-well format), the nutrient broth containing the fungal spores is added. The test plates are incubated at 24° C. and the inhibition of growth is determined photometrically 4 to 5 days after application.

[2] = tested on: Mycosphaerella graminicola (Septoria tritici); assay: Mycosphaerella graminicola (Septoria tritici) / liquid culture (Septoria blotch); details: Zymoseptoria tritici, growth inhibition photometrically 4 to 5 days after application, read-out: control of Mycosphaerella graminicola
Description: as §1, with “B12:” for “B6:”, “graminicola (Septoria tritici)/Liquid” for “arachidis (Cercospora arachidicola)/Liquid”, “(Septoria Blotch)” for “(Early Leaf Spot)”

[3] = tested on: Monographella nivalis (Microdochium nivale); assay: Monographella nivalis (Microdochium nivale) / liquid culture (foot rot cereals); details: growth inhibition photometrically 4 to 5 days after application, read-out: control of Monographella nivalis
Description: as §1, with “B5: Monographella nivalis (Microdochium nivale)/Liquid” for “B6: Mycosphaerella arachidis (Cercospora arachidicola)/Liquid”, “(Foot Rot Cereals)” for “(Early Leaf Spot)”

Compound	inhibition of growth at 20 ppm [1] [%]	inhibition of growth at 20 ppm [2] [%]	inhibition of growth at 20 ppm [3] [%]
Cc1c(C2CN(C(=O)c3nnc(-c4ccc(F)cc4F)s3)Cc3ccccc32)nc(Cl)n1C (stereo not drawn) [Compound P-11, [4-(2-chloro-1,5-dimethyl-imidazol-4-yl)-3,4-dihydro-1H-isoquinolin-2-yl]-[5-(2,4-difluorophenyl)-1,3,4-thiadiazol-2-yl]methanone]	≥ 80	≥ 80	
O=C(c1cc(-c2ccccc2)on1)N1Cc2ccccc2C(c2cnccc2Cl)C1 (stereo not drawn) [Compound P-30, [4-(4-chloro-3-pyridyl)-3,4-dihydro-1H-isoquinolin-2-yl]-(5-phenylisoxazol-3-yl)methanone]		≥ 80	
CC1(c2cccnc2)CN(C(=O)c2cc(-c3ccccc3)on2)Cc2ccccc21 (stereo not drawn) [Compound P-32, [4-methyl-4-(3-pyridyl)-1,3-dihydroisoquinolin-2-yl]-(5-phenylisoxazol-3-yl)methanone]		≥ 80	
Cc1nc(C2CN(C(=O)c3cc(-c4ccc(F)cc4F)on3)Cc3ccccc32)no1 (stereo not drawn) [Compound P-25, [5-(2,4-difluorophenyl)isoxazol-3-yl]-[4-(5-methyl-1,2,4-oxadiazol-3-yl)-3,4-dihydro-1H-isoquinolin-2-yl]methanone]		≥ 80	
Cc1c(C2CN(C(=O)c3cc(-c4ccc(F)cc4F)on3)Cc3ccccc32)cc(C#N)n1C (stereo not drawn) [Compound P-20, 4-[2-[5-(2,4-difluorophenyl)isoxazole-3-carbonyl]-3,4-dihydro-1H-isoquinolin-4-yl]-1,5-dimethyl-pyrrole-2-carbonitrile]		≥ 80	
Cc1c(C2CN(C(=O)c3nnc(-c4ccc(F)cc4F)s3)Cc3ccccc32)cc(C#N)n1C (stereo not drawn) [Compound P-28, 4-[2-(5-(2,4-difluorophenyl)-1,3,4-thiadiazole-2-carbonyl]-3,4-dihydro-1H-isoquinolin-4-yl]-1,5-dimethyl-pyrrole-2-carbonitrile]		≥ 80	
Cn1cnc(C2CN(C(=O)c3cc(-c4ccc(F)cc4F)on3)Cc3ccccc32)n1 (stereo not drawn) [Compound P-33, [5-(2,4-difluorophenyl)isoxazol-3-yl]-[4-(1-methyl-1,2,4-triazol-3-yl)-3,4-dihydro-1H-isoquinolin-2-yl]methanone]		≥ 80	
Cc1nc(C2CN(C(=O)c3cc(-c4ccccc4)on3)Cc3ccccc32)c(Cl)n1C (stereo not drawn) [Compound P-31, [4-(5-chloro-1,2-dimethyl-imidazol-4-yl)-3,4-dihydro-1H-isoquinolin-2-yl]-(5-phenylisoxazol-3-yl)methanone]		≥ 80	
Cc1cncc(C2CN(C(=O)c3cc(-c4ccc(F)cc4F)on3)Cc3ccccc32)c1 (stereo not drawn) [Compound P-22, [5-(2,4-difluorophenyl)isoxazol-3-yl]-[4-(5-methyl-3-pyridyl)-3,4-dihydro-1H-isoquinolin-2-yl]methanone]		≥ 80	
Cc1c(C2CN(C(=O)c3cc(-c4ccc(F)cc4)on3)Cc3ccccc32)cc(C#N)n1C (stereo not drawn) [Compound P-18, 4-[2-[5-(4-fluorophenyl)isoxazole-3-carbonyl]-3,4-dihydro-1H-isoquinolin-4-yl]-1,5-dimethyl-pyrrole-2-carbonitrile]		≥ 80	
O=C(c1cc(-c2ccc(F)cc2F)on1)N1Cc2ccccc2C(c2ccccn2)C1 (stereo not drawn) [Compound P-15, [5-(2,4-difluorophenyl)isoxazol-3-yl]-[4-(2-pyridyl)-3,4-dihydro-1H-isoquinolin-2-yl]methanone]		≥ 80	≥ 80
O=C(c1cc(-c2ccc(F)cc2F)on1)N1Cc2cccc(F)c2C(c2cccnc2)C1 (stereo not drawn) [Compound P-9, [5-(2,4-difluorophenyl)isoxazol-3-yl]-[5-fluoro-4-(3-pyridyl)-3,4-dihydro-1H-isoquinolin-2-yl]methanone]	≥ 80	≥ 80	≥ 80
Cc1ncccc1C1CN(C(=O)c2cc(-c3ccc(F)cc3F)on2)Cc2ccccc21 (stereo not drawn) [Compound P-13, [5-(2,4-difluorophenyl)isoxazol-3-yl]-[4-(2-methyl-3-pyridyl)-3,4-dihydro-1H-isoquinolin-2-yl]methanone]	≥ 80	≥ 80	
Cn1nc(C2CN(C(=O)c3cc(-c4ccc(F)cc4F)on3)Cc3ccccc32)cc1Br (stereo not drawn) [Compound P-21, [4-(5-bromo-1-methyl-pyrazol-3-yl)-3,4-dihydro-1H-isoquinolin-2-yl]-[5-(2,4-difluorophenyl)isoxazol-3-yl]methanone]		≥ 80	
O=C(c1cc(-c2ccc(F)cc2F)on1)N1Cc2ccccc2C(c2cccnc2)C1 (stereo not drawn) [Compound P-5, [5-(2,4-difluorophenyl)isoxazol-3-yl]-[4-(3-pyridyl)-3,4-dihydro-1H-isoquinolin-2-yl]methanone]	≥ 80	≥ 80	≥ 80
Cn1cc(C2CN(C(=O)c3cc(-c4ccc(F)cc4F)on3)Cc3ccccc32)nn1 (stereo not drawn) [Compound P-35, [5-(2,4-difluorophenyl)isoxazol-3-yl]-[4-(1-methyltriazol-4-yl)-3,4-dihydro-1H-isoquinolin-2-yl]methanone]		≥ 80	
Cc1nc(C2CN(C(=O)c3cc(-c4ccc(F)cc4F)on3)Cc3ccccc32)nn1C (stereo not drawn) [Compound P-39, [5-(2,4-difluorophenyl)isoxazol-3-yl]-[4-(1,5-dimethyl-1,2,4-triazol-3-yl)-3,4-dihydro-1H-isoquinolin-2-yl]methanone]		≥ 80	
Cn1c(Cl)nc(C2CN(C(=O)c3cc(-c4ccc(F)cc4F)on3)Cc3ccccc32)c1Cl (stereo not drawn) [Compound P-10, [4-(2,5-dichloro-1-methyl-imidazol-4-yl)-3,4-dihydro-1H-isoquinolin-2-yl]-[5-(2,4-difluorophenyl)isoxazol-3-yl]methanone]	≥ 80	≥ 80	
Cc1c(C2CN(C(=O)c3cc(-c4ccccc4)on3)Cc3ccccc32)cc(C#N)n1C (stereo not drawn) [Compound P-26, 1,5-dimethyl-4-[2-(5-phenylisoxazole-3-carbonyl)-3,4-dihydro-1H-isoquinolin-4-yl]pyrrole-2-carbonitrile]		≥ 80	
O=C(c1cc(-c2ccc(F)cc2F)on1)N1Cc2ccccc2C(c2ccc(F)nc2)C1 (stereo not drawn) [Compound P-12, [5-(2,4-difluorophenyl)isoxazol-3-yl]-[4-(6-fluoro-3-pyridyl)-3,4-dihydro-1H-isoquinolin-2-yl]methanone]		≥ 80	≥ 80
Cc1ncc(C2CN(C(=O)c3cc(-c4ccccc4)on3)Cc3ccccc32)cc1Cl (stereo not drawn) [Compound P-29, [4-(5-chloro-6-methyl-3-pyridyl)-3,4-dihydro-1H-isoquinolin-2-yl]-(5-phenylisoxazol-3-yl)methanone]		≥ 80	
CC1(c2cccnc2)CN(C(=O)c2cc(-c3ccc(F)cc3F)on2)Cc2ccccc21 (stereo not drawn) [Compound P-27, [5-(2,4-difluorophenyl)isoxazol-3-yl]-[4-methyl-4-(3-pyridyl)-1,3-dihydroisoquinolin-2-yl]methanone]		≥ 80	
Cc1ncc(C2CN(C(=O)c3cc(-c4ccc(F)cc4F)on3)Cc3ccccc32)cc1Cl (stereo not drawn) [Compound P-23, [4-(5-chloro-6-methyl-3-pyridyl)-3,4-dihydro-1H-isoquinolin-2-yl]-[5-(2,4-difluorophenyl)isoxazol-3-yl]methanone]		≥ 80	
Cc1ccncc1C1CN(C(=O)c2cc(-c3ccc(F)cc3F)on2)Cc2ccccc21 (stereo not drawn) [Compound P-14, [5-(2,4-difluorophenyl)isoxazol-3-yl]-[4-(4-methyl-3-pyridyl)-3,4-dihydro-1H-isoquinolin-2-yl]methanone]	≥ 80	≥ 80	
Cc1c(C2CN(C(=O)c3cc(-c4ccc(F)cc4F)on3)Cc3ccccc32)nc(Cl)n1C (stereo not drawn) [Compound P-16, [4-(2-chloro-1,5-dimethyl-imidazol-4-yl)-3,4-dihydro-1H-isoquinolin-2-yl]-[5-(2,4-difluorophenyl)isoxazol-3-yl]methanone]		≥ 80	
Cc1nc(C2CN(C(=O)c3cc(-c4ccc(F)cc4F)on3)Cc3ccccc32)c(Cl)n1C (stereo not drawn) [Compound P-17, [4-(5-chloro-1,2-dimethyl-imidazol-4-yl)-3,4-dihydro-1H-isoquinolin-2-yl]-[5-(2,4-difluorophenyl)isoxazol-3-yl]methanone]		≥ 80	
O=C(c1cc(-c2ccc(F)cc2F)on1)N1Cc2ccccc2C(c2cnccc2Cl)C1 (stereo not drawn) [Compound P-24, [4-(4-chloro-3-pyridyl)-3,4-dihydro-1H-isoquinolin-2-yl]-[5-(2,4-difluorophenyl)isoxazol-3-yl]methanone]		≥ 80	
O=C(c1cc(-c2ccc(F)cc2F)on1)N1Cc2ccccc2C(c2cccnn2)C1 (stereo not drawn) [Compound P-36, [5-(2,4-difluorophenyl)isoxazol-3-yl]-(4-pyridazin-3-yl-3,4-dihydro-1H-isoquinolin-2-yl)methanone]		≥ 80	
O=C(c1cc(-c2ccccc2)on1)N1Cc2ccccc2C(c2ccc(F)nc2)C1 (stereo not drawn) [Compound P-34, [4-(6-fluoro-3-pyridyl)-3,4-dihydro-1H-isoquinolin-2-yl]-(5-phenylisoxazol-3-yl)methanone]		≥ 80	
